Measured values reported in patent publication US20120214847A1, “2-[1-PHENYL-5-HYDROXY-4a-SUBSTITUTED-HEXAHYDROCYCLOPENTA[F]INDAZOL-5-YL]ETHYL PHENYL DERIVATIVES AS GLUCOCORTICOID RECEPTOR LIGANDS” (Merck Sharp & Dohme Corp., priority 2009, published 2012).

Molecular target: T1, human GR (Homo sapiens, UniProt P04150)
T1 construct: naturally expresses the human GR; endogenous in cells
T1 sequence (P04150 1-777): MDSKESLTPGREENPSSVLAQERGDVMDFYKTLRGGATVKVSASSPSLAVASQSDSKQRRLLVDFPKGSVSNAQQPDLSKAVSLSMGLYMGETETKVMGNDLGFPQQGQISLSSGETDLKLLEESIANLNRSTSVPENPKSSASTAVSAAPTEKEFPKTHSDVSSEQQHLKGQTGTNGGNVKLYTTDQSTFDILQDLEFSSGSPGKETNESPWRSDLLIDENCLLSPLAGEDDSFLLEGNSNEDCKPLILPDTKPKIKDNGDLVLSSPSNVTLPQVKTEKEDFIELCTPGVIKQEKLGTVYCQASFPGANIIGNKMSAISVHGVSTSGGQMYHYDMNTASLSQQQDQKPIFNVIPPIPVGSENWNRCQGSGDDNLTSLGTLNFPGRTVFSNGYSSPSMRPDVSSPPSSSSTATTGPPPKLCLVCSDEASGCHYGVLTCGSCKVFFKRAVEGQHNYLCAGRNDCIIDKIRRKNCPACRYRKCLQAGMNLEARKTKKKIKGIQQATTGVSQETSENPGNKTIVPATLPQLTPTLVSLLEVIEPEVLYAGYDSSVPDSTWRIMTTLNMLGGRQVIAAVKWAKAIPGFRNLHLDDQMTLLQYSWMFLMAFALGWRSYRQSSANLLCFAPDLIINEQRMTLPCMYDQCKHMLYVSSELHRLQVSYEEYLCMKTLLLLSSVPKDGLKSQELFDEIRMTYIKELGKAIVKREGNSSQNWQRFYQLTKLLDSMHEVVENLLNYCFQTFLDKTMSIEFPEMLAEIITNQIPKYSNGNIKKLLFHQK
Assay: Transrepression assay (GITAR), TNFα-β-lactamase reporter in U937 cells
Type: cell-based
Details: for EC50: IP = inflection point; for Emax: U-937, U937 cells
Excerpt: Transrepression Assay (GITAR)
This assay assesses the ability of test compounds to control transcription from the TNFα-β-lactamase reporter gene in U937 cells, a human myelomonocytic leukemia cell line that naturally expresses the human GR. The assay measures compound dependent-repression of the TNFa promoter linked to a reporter gene.
The human U937 cells that had been stablely transfected with the TNF-a promoter driving ˜-lactamase are used for this assay. U937 cells contain an endogenous glucocorticoid receptor (GR). Cells are maintained in RPMI 1640 Growth medium (GibcoCat#11875-093) containing 25 mM HEPES, 10% FBS, 2 mM L-Glutamine, 1 mM Sodium pyruvate, 25 μg/ml Gentamicin (Gibed Cat#1571 0-064), 1:1000 2-Mercaptoethanol (Gibco Cat#21985-023) and 0.8 mg/ml G418 (Gibco Cat#10131-027). The density of the cells in the flask needs to be about 1×10^6-3×10^6/ml at the time of harvest. Usually, the cells are split to 1.2˜1.4×10^5/ml (1:10) 3 days prior to the assay. 50,000 cells/well are plated in 96 well black-walled plates the day of assay. Test compounds are added 10 J.lL/well, and cells are incubated at 37° C. for 30˜45 min. For assaying compounds, first dilute 1:10 in DMSO to make 1 mM, then further dilute 1:100 in medium to make 10× stock prior to adding to the cells. Add 50 ng/ml PMA (Sigma, cat#P8139) 10 μL/well to a final concentration 5 ng/ml, and 1 μg/ml LPS (Sigma, cat#L4130) 10 μL/well to a final concentration 100 ng/ml. Incubate cells at 370 C overnight for −18 hr. PMA is stored frozen as […] in DMSO. Dilute 1:10 in DMSO for a working stock of 10 μg/ml and store at −20° C. For assaying, dilute the 10 μg/ml working stock 1:200 in medium to make a 10× solution (50 ng/ml). Store frozen LPS at 1 mg/ml in PBS, dilute 1:1000 in medium to make 10×μg/ml) for the assay. Add 6× loading buffer (CCF2-AM) 20 μL/well, and incubate at room temperature for 70-90 min. […] The activity repressed by 100 nM dexamethasone alone is set as 100% activity.

[1] = activity repressed by 100 nM dexamethasone alone set as 100%

Row | Compound | EC50 (U937 cells) | Emax [1] | Transrepression U937 Cells GITAR Emax (%) (U937 cells, activity repressed by 100 nM dexamethasone alone set as 100%)
1 | CC[C@]12Cc3cnn(-c4ccc(F)cc4)c3C=C1CC[C@@]2(O)CCc1cc(F)ccn1 [Example 18, (4aS,5R)-4a-Ethyl-1-(4-fluorophenyl)-5-[2-(4-fluoropyridin-2-yl)ethyl]-1,4,4a,5,6,7-hexahydrocyclopenta[f]indazol-5-ol] | 0.074 µM | 80% | –
2 | CC[C@]12Cc3cnn(-c4ccc(F)cc4)c3C=C1CC[C@@]2(O)CC(O)c1ncccc1F (stereo partly drawn) [Example 77, (4aS,5R)-4a-Ethyl-1-(4-fluorophenyl)-5-[2-(3-fluoropyridin-2-yl)-2-hydroxyethyl]-1,4,4a,5,6,7-hexahydrocyclopenta[f]indazol-5-ol] | 0.162 µM | – | 60%
3 | CC[C@]12Cc3cnn(-c4ccc(F)cc4)c3C=C1CC[C@@]2(O)CC(O)c1ccccn1 (stereo partly drawn) [Example 68, (4aS,5R)-4a-Ethyl-1-(4-fluorophenyl)-5-[2-hydroxy-2-(pyridin-2-yl)ethyl]-1,4,4a,5,6,7-hexahydrocyclopenta[f]indazol-5-ol] | 0.018 µM | 71% | –
4 | CC[C@]12Cc3cnn(-c4ccc(F)cc4)c3C=C1CC[C@@]2(O)CCc1ccc(F)cc1C(N)=O [Example 8, 2-{2-[(4aS,5R)-4a-Ethyl-1-(4-fluorophenyl)-5-hydroxy-1,4,4a,5,6,7-hexahydrocyclopenta[f]indazol-5-yl]ethyl}-5-fluorobenzamide] | 0.09 µM | 88% | –
5 | CC[C@]12Cc3cnn(-c4ccc(F)cc4)c3C=C1CC[C@@]2(O)CCc1ncccc1F [Example 17, (4aS,5R)-4a-Ethyl-1-(4-fluorophenyl)-5-[2-(3-fluoropyridin-2-yl)ethyl]-1,4,4a,5,6,7-hexahydrocyclopenta[f]indazol-5-ol] | 0.044 µM | 89% | –
6 | CC[C@]12Cc3cnn(-c4ccc(F)cc4)c3C=C1CC[C@@]2(O)CC(O)c1ncccc1F (stereo partly drawn) [Example 76, (4aS,5R)-4a-Ethyl-1-(4-fluorophenyl)-5-[2-(3-fluoropyridin-2-yl)-2-hydroxyethyl]-1,4,4a,5,6,7-hexahydrocyclopenta[f]indazol-5-ol] | 0.275 µM | 64% | –
7 | N#Cc1cccnc1CC[C@]1(O)CCC2=Cc3c(cnn3-c3ccc(F)cc3)C[C@@]21C1CC1 [Example 31, 2-{2-[(4aR,5R)-4a-Cyclopropyl-1-(4-fluorophenyl)-5-hydroxy-1,4,4a,5,6,7-hexahydrocyclopenta[f]indazol-5-yl]ethyl}pyridine-3-carbonitrile] | 0.013 µM | 89% | –
8 | CC[C@]12Cc3cnn(-c4ccc(F)cc4)c3C=C1CC[C@@]2(O)CCc1ccccc1C(O)C(N)=O (stereo partly drawn) [Example 25, 2-(2-{2-[(4aS,5R)-4a-Ethyl-1-(4-fluorophenyl)-5-hydroxy-1,4,4a,5,6,7-hexahydrocyclopenta[f]indazol-5-yl]ethyl}phenyl)-2-hydroxyacetamide] | 0.118 µM | 74% | –
9 | CC[C@]12Cc3cnn(-c4cccnc4)c3C=C1CC[C@@]2(O)CCc1ccccc1C(N)=O [Example 13, 2-{2-[(4aS,5R)-4a-Ethyl-5-hydroxy-1-(pyridin-3-yl)-1,4,4a,5,6,7-hexahydrocyclopenta[f]indazol-5-yl]ethyl}benzamide] | 0.163 µM | 76% | –
10 | CC[C@]12Cc3cnn(-c4ccc(F)cc4)c3C=C1CC[C@@]2(O)CCc1cccc(F)c1CC(N)=O [Example 60, 2-(2-{2-[(4aS,5R)-4a-Ethyl-1-(4-fluorophenyl)-5-hydroxy-1,4,4a,5,6,7-hexahydrocyclopenta[f]indazol-5-yl]ethyl}-6-fluorophenyl)acetamide] | 0.024 µM | 84% | –
11 | NC(=O)c1cccnc1CC[C@]1(O)CCC2=Cc3c(cnn3-c3ccc(F)cc3)C[C@@]21C1CC1 [Example 1, 2-{2-[(4aR,5R)-4a-Cyclopropyl-1-(4-fluorophenyl)-5-hydroxy-1,4,4a,5,6,7-hexahydrocyclopenta[f]indazol-5-yl]ethyl}pyridine-3-carboxamide] | 0.055 µM | 77% | –
12 | COc1ccnc(CC[C@]2(O)CCC3=Cc4c(cnn4-c4ccc(F)cc4)C[C@@]32C2CC2)c1C(N)=O [Example 54, 2-{2-[(4aR,5R)-4a-Cyclopropyl-1-(4-fluorophenyl)-5-hydroxy-1,4,4a,5,6,7-hexahydrocyclopenta[f]indazol-5-yl]ethyl}-4-methoxypyridine-3-carboxamide] | 0.048 µM | 77% | –
13 | NC(=O)c1ccccc1CC[C@]1(O)CCC2=Cc3c(cnn3-c3cccc(F)c3)C[C@@]21C1CC1 [Example 7, 2-{2-[(4aR,5R)-4a-Cyclopropyl-1-(3-fluorophenyl)-5-hydroxy-1,4,4a,5,6,7-hexahydrocyclopenta[f]indazol-5-yl]ethyl}benzamide] | 0.143 µM | 67% | –
14 | NC(=O)C(O)c1ccccc1CC[C@]1(O)CCC2=Cc3c(cnn3-c3ccc(F)cc3)C[C@@]21C1CC1 (single isomer, unassigned) [Example 3b] | 0.068 µM | 85% | –
15 | NC(=O)Cc1ccccc1CC[C@]1(O)CCC2=Cc3c(cnn3-c3ccc(F)cc3)C[C@@]21C1CC1 [Example 56, 2-(2-{2-[(4aR,5S)-4a-Cyclopropyl-1-(4-fluorophenyl)-5-hydroxy-1,4,4a,5,6,7-hexahydrocyclopenta[f]indazol-5-yl]ethyl}phenyl)acetamide] | 0.095 µM | 78% | –
16 | OC(C[C@]1(O)CCC2=Cc3c(cnn3-c3ccc(F)cc3)C[C@@]21C1CC1)c1ccccn1 (stereo partly drawn) [Example 78, (4aR,5R)-4a-Cyclopropyl-1-(4-fluorophenyl)-5-[2-hydroxy-2-(pyridin-2-yl)ethyl]-1,4,4a,5,6,7-hexahydrocyclopenta[f]indazol-5-ol] | 0.213 µM | 49% | –
17 | CC[C@]12Cc3cnn(-c4ccc(F)cc4)c3C=C1CC[C@@]2(O)CCc1ccc(F)cn1 [Example 19, (4aS,5R)-4a-Ethyl-1-(4-fluorophenyl)-5-[2-(5-fluoropyridin-2-yl)ethyl]-1,4,4a,5,6,7-hexahydrocyclopenta[f]indazol-5-ol] | 0.263 µM | 77% | –
18 | NC(=O)CNC(=O)c1cc(F)cnc1CC[C@]1(O)CCC2=Cc3c(cnn3-c3ccc(F)cc3)C[C@@]21C1CC1 [Example 44, N-(2-Amino-2-oxoethyl)-2-{2-[(4aR,5R)-4a-cyclopropyl-1-(4-fluorophenyl)-5-hydroxy-1,4,4a,5,6,7-hexahydrocyclopenta[f]indazol-5-yl]ethyl}-5-fluoropyridine-3-carboxamide] | 0.038 µM | 86% | –
19 | N#Cc1c(F)cccc1CC[C@]1(O)CCC2=Cc3c(cnn3-c3ccccc3)C[C@@]21C1CC1 [Example 28, 2-{2-[(4aR,5R)-4a-Cyclopropyl-5-hydroxy-1-phenyl-1,4,4a,5,6,7-hexahydrocyclopenta[f]indazol-5-yl]ethyl}-6-fluorobenzonitrile] | 0.122 µM | 88% | –
20 | NC(=O)c1ccccc1CC[C@]1(O)CCC2=Cc3c(cnn3-c3ccccc3)C[C@@]21C1CC1 [Example 29, 2-{2-[(4aR,5R)-4a-Cyclopropyl-5-hydroxy-1-phenyl-1,4,4a,5,6,7-hexahydrocyclopenta[f]indazol-5-yl]ethyl}benzamide] | 0.047 µM | 69% | –
